Results reported in patent US6365360B1, “Methods of identifying modulators of human IP prostaglandin receptor” (Merck Frosst Canada & Co., priority 1993, dated 2002).

Columns and labels:
[1] = molecular target: T1, human prostaglandin I2 (IP) receptor (Homo sapiens, UniProt P43119); experiment: [3H]iloprost competition binding to membranes of pcDNAIamp-hIP transfected COS-M6 cells; details: for competition for [3H]iloprost specific binding to the hIP receptor: at a concentration of 30 μM; for IC50: read-out: IC50, competition for [3H]iloprost specific binding, 4 nM [3H]iloprost, COS-M6 membranes, pH 6.0, 45 min at 30° C.
T1 construct: A DNA molecule encoding the full length IP protein has been isolated and purified; expressed in transfected cells; host or cells: COS-M6 cells (membrane fraction), pcDNAIamp-hIP, DEAE-dextran transfection
T1 sequence (P43119 whole entry): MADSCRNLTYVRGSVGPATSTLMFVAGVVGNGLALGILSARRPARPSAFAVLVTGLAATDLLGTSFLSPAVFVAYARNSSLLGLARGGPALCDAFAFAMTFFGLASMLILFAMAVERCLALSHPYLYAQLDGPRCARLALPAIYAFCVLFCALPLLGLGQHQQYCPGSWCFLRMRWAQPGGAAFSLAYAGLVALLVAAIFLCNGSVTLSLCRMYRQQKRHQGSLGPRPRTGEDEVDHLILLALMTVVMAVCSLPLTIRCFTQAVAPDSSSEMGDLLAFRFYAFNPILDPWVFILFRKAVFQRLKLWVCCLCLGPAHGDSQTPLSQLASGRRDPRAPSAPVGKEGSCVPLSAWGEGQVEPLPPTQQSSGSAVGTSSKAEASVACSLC

[2] = tested on: endogenous IP receptors in oocytes; experiment: Control oocytes injected with CFTR cDNA alone (voltage clamp); assay type: cell-based, Xenopus laevis; details: 100 nM
Procedure: The broken line represents the zero current level.
(§1) The voltage-clamp experiments shown here were performed 48 hr after nuclear injection and are representative of 6 separate experiments with oocytes from 3 different frogs.
(§2) Oocytes were taken from adult females of Xenopus laevis using standard surgical procedure (Colman, A., 1984 In: Transcription and Translation—A Practical Approach, IRL Press). To remove follicle cells, oocytes were treated for 2-3 h with freshly made collagenase (2 mg/ml, type 2, Worthington Biochemical Corp., Freehold, N.J.) in Ca^2+-free ND96 solution (ND96 in mM: NaCl 96, KCl 2, MgCl2 1, HEPES 5, Na-pyruvate 2.5, theophylline 0.5, gentamicin […], +1.8 CaCl2, pH 7.6). Defolliculated stage 5-6 oocytes were selected and maintained in ND96 solution. Oocyte nuclei were injected with 1.6 ng of pcDNAlamp-IP plus 2.5 ng of pcDNAIamp-CFTR and then incubated at 18° C. for 48 h before challenge with agonist. CFTR (cystic fibrosis transmembrane regulator, a cAMP dependent Cl^− channel) was co-expressed with IP receptor in these oocytes and served as a reporter of changes in intracellular cAMP levels. Functional activity was determined by measurement of Iloprost-induced CFTR-mediated Cl^− current. An oocyte was placed in a 0.5 ml perfusion chamber and voltage clamped at −60 mV (with microelectrodes of 0.5-2.0 MW resistance filled with 3 M KCl) using a Turbo TEC 01C amplifier (NPl Instruments, Germany). Ligand-containing solution was perfused and the current response was recorded.
(§3) This rank order of potency is consistent with that reported for the IP receptor [Coleman, et al., 1990. Comprehensive Medicinal Chemistry (Hansch, C., Sammes, P. G., Taylor, J. B., and Emmett, J. C., Eds) Vol. 3, pp. 643-714, Pergamon, Press, Oxford].

IP receptor (hIP cDNA) = molecular target: T2, IP receptor (hIP cDNA) (Homo sapiens, UniProt P43119); experiment: CFTR-mediated Cl- current in Xenopus oocytes co-injected with pcDNAIamp-IP and pcDNAIamp-CFTR (voltage clamp); assay type: cell-based; details: oocyte clamped at -60 mV, 48 h after injection
T2 construct: A DNA molecule encoding the full length IP protein has been isolated and purified; expressed in transfected cells; host or cells: Xenopus laevis oocytes, nuclear injection of pcDNAIamp-IP plus pcDNAIamp-CFTR
T2 sequence (P43119 whole entry): as above
Procedure: FIG. 5A and 5B —Expression of the prostaglandin 12 receptor in IP cDNA-injected Xenopus oocytes is shown.
as §1, §2, §3

Compound | competition for [3H]iloprost specific binding to the hIP receptor [1] | current response in control (CFTR alone injected) oocytes [2] | CFTR-mediated Cl- current response (IP receptor (hIP cDNA); 100 nM) | IC50 [1] [µM] | CFTR-mediated Cl- current response (IP receptor (hIP cDNA); perfusion of 1-100 nM)
CCCCC[C@H](O)/C=C/[C@H]1C(=O)C[C@H](O)[C@@H]1C/C=C\CCCC(=O)O [PGD2] | essentially inactive | no responses | not detectable | – | –
CCCCC[C@H](O)/C=C/[C@H]1[C@H](O)CC(=O)[C@@H]1C/C=C\CCCC(=O)O [PGE2] | – | no responses | not detectable | ~10 | –
CCCCC[C@H](O)/C=C/[C@@H]1[C@@H](C/C=C\CCCC(=O)O)[C@@H](O)C[C@H]1O [PGF2α] | – | – | – | ~10 | –
CCCCC[C@H](O)/C=C/[C@@H]1[C@@H](C/C=C\CCCC(=O)O)[C@H]2CO[C@@H]1C2 [U46619] | essentially inactive | – | – | – | –
CC#CCC(C)[C@H](O)/C=C/[C@@H]1[C@H]2C/C(=C/CCCC(=O)O)C[C@H]2C[C@H]1O (stereo partly shown) [iloprost] | – | no responses | – | – | prominent current responses
